This note sets out measurements from patent publication US7094752B2 (Chiron Corporation, priority 1997, dated 2006).

Where two headings read alike, the source gives them in different places. Marks after values point to notes of the source that are not given here. Square brackets hold non-standard residues; d marks the D form. Peptide text beside a SMILES is read from it.

Test [1] deals with T1, soluble uPAR (Homo sapiens, UniProt Q03405). It is filed as binding. Further details: sUPAR, soluble truncated form of the urokinase receptor; made in house; host or cells: baculovirus-infected Sf9 insect cells. The note with it: for % Inhibition 2.5 uM: 2500.0; for % Inhibition 5 uM: 5000.0. As for the experimental part: Streptavidin, 100 μl (0.1 mg/ml) in 50 mM Na2CO3, pH 9.6, was added to MaxiSorp wells (Nunc), incubated overnight at 4 C, and then washed with PBS/BSA. Biotinylated sUPAR (25 nM in PBS/BSA) was added to the wells and incubated for 2 hours at room temperature prior to washing. Competitive peptide inhibitors were added to the wells immediately prior to addition of the bacteriophage. The wells were incubated for one hour at room temperature, then washed and bound bacteriophage eluted with 6M urea in 0.1N HCl, pH 2.5. After 15 minutes, the urea eluate was brought to neutral pH by addition of 2M Tris base and the bacteriophage titers of input stocks and elutions measured by plaque formation assay. Results were expressed as the percent of input bacteriophage which bind to the wells. Alternatively, the amount of bacteriophage was determined in an ELISA where phage were preincubated with HRP-conjugated anti-M13 antibody for 30 minutes at room temperature before dispensing into wells prepared as above and incubated for one hour at room temperature. The final anti-M13 conjugate dilution was 1:4000. After washing, TMB substrate (100 μl/well) was added and color development was stopped with 0.8N H2SO4 (100 μl/well). The absorbance at 450 nm was then measured in a 96 well plate reader.
In a uPAR binding assay, the following analogs were tested in a competition with phage displaying either peptide 25 or peptide 9. The analogs comprise both natural and unnatural amino acids.
The analogs were tested in an assay utilizing soluble uPAR, similar to the method described in Example 2. The analogs were tested for their ability to compete with phage displaying either peptide 9 or peptide 25. Analogs 3–61 were tested in competition with peptide 25. Analogs 62–96 were tested in competition with peptide 9. Approximately 10^8 plaque forming units of the phage were used in the assay.
The analogs were tested at a concentration at 40 μM in the uPAR competition assay with phage displaying peptide 25. The results below show which analogs were active.
Analogs 31–61 were tested for their ability to compete with phage displaying peptide 25. The active analogs were tested further at two concentrations, 5 μM and 2.5 μM. These concentrations were calculated based on the synthesis reactions. However, the sequences * were further tested and determined to contain high amounts of amino acids and the quantity tested could have been higher than 5 μM or 2.5 μM.

Test [2] addresses T1, soluble uPAR. The conditions noted are these: for receptor binding activity, alanine scan of peptide 9: compared to peptide 9; for % Inhibition 2.5 uM: 2500.0; for % Inhibition 5 uM: 5000.0.
Procedure: The analogs were tested for their ability to compete with phage displaying either peptide 9 or peptide 25. […] Approximately 10^8 plaque forming units of the phage were used in the assay.

T1 sequence (Q03405 23-305 limits assumed): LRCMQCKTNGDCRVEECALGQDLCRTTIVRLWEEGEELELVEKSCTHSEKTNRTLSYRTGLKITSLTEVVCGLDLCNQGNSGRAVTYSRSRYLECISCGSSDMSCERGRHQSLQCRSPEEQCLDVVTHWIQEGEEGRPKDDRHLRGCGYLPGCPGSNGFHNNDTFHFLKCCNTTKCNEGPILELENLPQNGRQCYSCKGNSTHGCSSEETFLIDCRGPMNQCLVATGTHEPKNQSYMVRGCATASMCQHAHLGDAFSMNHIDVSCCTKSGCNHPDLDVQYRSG

Take `CSCC[C@H](NC(=O)[C@H](Cc1ccc(O)cc1)NC(=O)CNC(=O)[C@H](CC(C)C)NC(=O)[C@H](CO)NC(=O)[C@H](CC(C)C)NC(=O)[C@H](Cc1c[nH]cn1)NC(=O)[C@H](Cc1c[nH]cn1)NC(=O)[C@H](Cc1ccc(O)cc1)NC(=O)[C@@H](NC(=O)[C@H](CO)NC(=O)[C@H](CCC(=O)O)NC(=O)[C@@H](C)N)[C@@H](C)O)C(=O)N[C@@H](Cc1ccc(O)cc1)C(=O)N[C@H](C(=O)N[C@@H](CC(C)C)C(=O)N[C@@H](CC(N)=O)C(N)=O)[C@@H](C)O` [Analog 46] (H-[dA]ESTYHHLSLGYMYTLN-NH2): in test [1], the “% Inhibition 2.5 uM” value was determined as 41% and the “% Inhibition 5 uM” value was 57%.

Take AEFFKLGPNGAVYLHSA [Analog 74]: the “receptor binding activity, alanine scan of peptide 9” value (“receptor binding activity” for short) in test [2] is “destroyed receptor binding activity”.

With AEFFKLGPNGYAYLHSA [Analog 75], in test [2], the “receptor binding activity” value was “destroyed receptor binding activity”.

As to `CC(C)C[C@H](NC(=O)[C@H](CCCCN)NC(=O)[C@H](Cc1ccccc1)NC(=O)[C@H](Cc1ccccc1)NC(=O)[C@H](CCC(=O)O)NC(=O)[C@H](C)N)C(=O)NCC(=O)N1CCC[C@@H]1C(=O)N[C@@H](CC(N)=O)C(=O)NCC(=O)N[C@@H](Cc1ccc(O)cc1)C(=O)N[C@H](C(=O)N[C@@H](Cc1ccc(O)cc1)C(=O)N[C@@H](CC(C)C)C(=O)N[C@@H](Cc1c[nH]cn1)C(=O)N[C@@H](CO)C(=O)N[C@@H](C)C(N)=O)C(C)C` [Analog 88] (H-AEFFKLG[dP]NGYVYLHSA-NH2), in test [2], the “% Inhibition 2.5 uM” value is recorded as 80* % and the “% Inhibition 5 uM” value is on record as 76%.

As for `CC(C)C[C@H](NC(=O)[C@H](CCCCN)NC(=O)[C@H](Cc1ccccc1)NC(=O)[C@H](Cc1ccccc1)NC(=O)[C@@H](CCC(=O)O)NC(=O)[C@H](C)N)C(=O)NCC(=O)N1CCC[C@H]1C(=O)N[C@@H](CC(N)=O)C(=O)NCC(=O)N[C@@H](Cc1ccc(O)cc1)C(=O)N[C@H](C(=O)N[C@@H](Cc1ccc(O)cc1)C(=O)N[C@@H](CC(C)C)C(=O)N[C@@H](Cc1c[nH]cn1)C(=O)N[C@@H](CO)C(=O)N[C@@H](C)C(N)=O)C(C)C` [Analog 83] (H-A[dE]FFKLGPNGYVYLHSA-NH2), in test [2], the “% Inhibition 2.5 uM” value turned out to be 44% and the “% Inhibition 5 uM” value is listed as 59%.

For `CC(C)C[C@H](NC(=O)[C@H](CCCCN)NC(=O)[C@H](Cc1ccccc1)NC(=O)[C@H](Cc1ccccc1)NC(=O)[C@H](CCC(=O)O)NC(=O)[C@H](C)N)C(=O)NCC(=O)N1CCC[C@H]1C(=O)N[C@@H](CC(N)=O)C(=O)NCC(=O)N[C@@H](Cc1ccc(O)cc1)C(=O)N[C@H](C(=O)N[C@@H](Cc1ccc(O)cc1)C(=O)N[C@@H](CC(C)C)C(=O)N[C@@H](Cc1c[nH]cn1)C(=O)N[C@H](CO)C(=O)N[C@@H](C)C(N)=O)C(C)C` [Analog 95] (H-AEFFKLGPNGYVYLH[dS]A-NH2), in test [2], the “% Inhibition 2.5 uM” value is recorded as 47% and the “% Inhibition 5 uM” value stood at 59%.

On to H-AESTYHHLSLGYVYTLN-NH2 [Analog 43], for which, in test [1], the “% Inhibition 2.5 uM” value worked out at 63% and the “% Inhibition 5 uM” value was determined as 82%.

Consider `CC(C)C[C@H](NC(=O)[C@H](CCCCN)NC(=O)[C@H](Cc1ccccc1)NC(=O)[C@H](Cc1ccccc1)NC(=O)[C@H](CCC(=O)O)NC(=O)[C@@H](C)N)C(=O)NCC(=O)N1CCC[C@H]1C(=O)N[C@@H](CC(N)=O)C(=O)NCC(=O)N[C@@H](Cc1ccc(O)cc1)C(=O)N[C@H](C(=O)N[C@@H](Cc1ccc(O)cc1)C(=O)N[C@@H](CC(C)C)C(=O)N[C@@H](Cc1c[nH]cn1)C(=O)N[C@@H](CO)C(=O)N[C@@H](C)C(N)=O)C(C)C` [Analog 82] (H-[dA]EFFKLGPNGYVYLHSA-NH2), for which, in test [2], the “% Inhibition 2.5 uM” value is listed as 24* % and the “% Inhibition 5 uM” value is given as 41%.

Turning to `CC(C)C[C@H](NC(=O)[C@H](CCCCN)NC(=O)[C@H](Cc1ccccc1)NC(=O)[C@H](Cc1ccccc1)NC(=O)[C@H](CCC(=O)O)NC(=O)[C@H](C)N)C(=O)NCC(=O)N1CCC[C@H]1C(=O)N[C@@H](CC(N)=O)C(=O)NCC(=O)N[C@@H](Cc1ccc(O)cc1)C(=O)N[C@H](C(=O)N[C@@H](Cc1ccc(O)cc1)C(=O)N[C@@H](CC(C)C)C(=O)N[C@H](Cc1c[nH]cn1)C(=O)N[C@@H](CO)C(=O)N[C@@H](C)C(N)=O)C(C)C` [Analog 94] (H-AEFFKLGPNGYVYL[dH]SA-NH2), in test [2], the “% Inhibition 2.5 uM” value was found to be 36% and the “% Inhibition 5 uM” value is listed as 41%.

For the compound `CC(C)C[C@H](NC(=O)[C@H](CCCCN)NC(=O)[C@H](Cc1ccccc1)NC(=O)[C@H](Cc1ccccc1)NC(=O)[C@H](CCC(=O)O)NC(=O)[C@H](C)N)C(=O)NCC(=O)N1CCC[C@H]1C(=O)N[C@H](CC(N)=O)C(=O)NCC(=O)N[C@@H](Cc1ccc(O)cc1)C(=O)N[C@H](C(=O)N[C@@H](Cc1ccc(O)cc1)C(=O)N[C@@H](CC(C)C)C(=O)N[C@@H](Cc1c[nH]cn1)C(=O)N[C@@H](CO)C(=O)N[C@@H](C)C(N)=O)C(C)C` [Analog 89] (H-AEFFKLGP[dN]GYVYLHSA-NH2), in test [2], the “% Inhibition 2.5 uM” value is on record as 15% and the “% Inhibition 5 uM” value worked out at 13%.

`CC(C)C[C@H](NC(=O)[C@H](CCCCN)NC(=O)[C@H](Cc1ccccc1)NC(=O)[C@H](Cc1ccccc1)NC(=O)[C@H](CCC(=O)O)NC(=O)[C@H](C)N)C(=O)NCC(=O)N1CCC[C@H]1C(=O)N[C@@H](CC(N)=O)C(=O)N[C@H](C)C(=O)N[C@@H](Cc1ccc(O)cc1)C(=O)N[C@H](C(=O)N[C@@H](Cc1ccc(O)cc1)C(=O)N[C@@H](CC(C)C)C(=O)N[C@@H](Cc1c[nH]cn1)C(=O)N[C@@H](CO)C(=O)N[C@@H](C)C(N)=O)C(C)C` [Analog 81] (H-AEFFKLGPN[dA]YVYLHSA-NH2): in test [2], the “% Inhibition 2.5 uM” value turned out to be 79% and the “% Inhibition 5 uM” value turned out to be 80%.

Take AEFAKLGPNGYVYLHSA [Analog 67]: the “receptor binding activity” value in test [2] was “decreased but did not destroy”.

In the case of AAFFKLGPNGYVYLHSA [Analog 65], the “receptor binding activity” value in test [2] was “decreased but did not destroy”.

For AEFFKAGPNGYVYLHSA [Analog 69], the “receptor binding activity” value in test [2] is “destroyed receptor binding activity”.

`CC(C)C[C@H](NC(=O)[C@H](CCCCN)NC(=O)[C@H](Cc1ccccc1)NC(=O)[C@H](Cc1ccccc1)NC(=O)[C@H](CCC(=O)O)NC(=O)[C@H](C)N)C(=O)NCC(=O)N1CCC[C@H]1C(=O)N[C@@H](CC(N)=O)C(=O)NCC(=O)N[C@@H](Cc1ccc(O)cc1)C(=O)N[C@H](C(=O)N[C@H](Cc1ccc(O)cc1)C(=O)N[C@@H](CC(C)C)C(=O)N[C@@H](Cc1c[nH]cn1)C(=O)N[C@@H](CO)C(=O)N[C@@H](C)C(N)=O)C(C)C` [Analog 92] (H-AEFFKLGPNGYV[dY]LHSA-NH2): in test [2], the “% Inhibition 2.5 uM” value came out at 8.5% and the “% Inhibition 5 uM” value is reported as 3.3%.

As to `CC(C)C[C@H](NC(=O)[C@H](CCCCN)NC(=O)[C@H](Cc1ccccc1)NC(=O)[C@H](Cc1ccccc1)NC(=O)[C@H](CCC(=O)O)NC(=O)[C@H](C)N)C(=O)NCC(=O)N1CCC[C@H]1C(=O)N[C@@H](CC(N)=O)C(=O)N[C@H](CO)C(=O)N[C@@H](Cc1ccc(O)cc1)C(=O)N[C@H](C(=O)N[C@@H](Cc1ccc(O)cc1)C(=O)N[C@@H](CC(C)C)C(=O)N[C@@H](Cc1c[nH]cn1)C(=O)N[C@@H](CO)C(=O)N[C@@H](C)C(N)=O)C(C)C` [Analog 80] (H-AEFFKLGPN[dS]YVYLHSA-NH2), in test [2], the “% Inhibition 2.5 uM” value is on record as 89% and the “% Inhibition 5 uM” value is 95%.

As to AEFFKLGPNGYVYAHSA [Analog 77], the “receptor binding activity” value in test [2] is on record as “decreased but did not destroy”.

Take AEFFKLGPNGYVALHSA [Analog 76]: the “receptor binding activity” value in test [2] was “destroyed receptor binding activity”.

Turning to `CC(C)C[C@H](NC(=O)[C@H](CCCCN)NC(=O)[C@H](Cc1ccccc1)NC(=O)[C@H](Cc1ccccc1)NC(=O)[C@H](CCC(=O)O)NC(=O)[C@H](C)N)C(=O)NCC(=O)N1CCC[C@H]1C(=O)N[C@@H](CC(N)=O)C(=O)NCC(=O)N[C@@H](Cc1ccc(O)cc1)C(=O)N[C@H](C(=O)N[C@@H](Cc1ccc(O)cc1)C(=O)N[C@@H](CC(C)C)C(=O)N[C@@H](Cc1c[nH]cn1)C(=O)N[C@@H](CO)C(=O)N[C@H](C)C(N)=O)C(C)C` [Analog 96] (H-AEFFKLGPNGYVYLHS[dA]-NH2), in test [2], the “% Inhibition 2.5 uM” value was 38* % and the “% Inhibition 5 uM” value came to 40%.
